Reference: the supplement of paper PMC10307832

What was measured:
Assay in all cases: relative viability (nuclei count vs DMSO), 5 days (fraction); higher = more cells survive
[1] = compound: COc1cc2ncn(-c3cc(OCc4ccccc4C(F)(F)F)c(C(N)=O)s3)c2cc1OC + COc1cccc2cc(-c3nc([C@H]4CC[C@H](C(=O)O)CC4)n4ncnc(N)c34)[nH]c12 [OSI-027] (partner 0.5 µM)
How it was run: (§1)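 Lung cancer cell lines were pin-tool dosed in 1536-well plates on the day after seeding, with either a lone drug or a fixed anchor-drug dose plus five library-drug doses (not always all listed) in √10 steps. Nuclei were counted on 4× images after 5 days. Relative viability is the ratio of treated-well to vehicle-well nuclei counts, with each value a median of duplicate plates.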

[2] = compound: COc1cc2ncn(-c3cc(OCc4ccccc4C(F)(F)F)c(C(N)=O)s3)c2cc1OC + CS(=O)(=O)CCNCc1ccc(-c2ccc3ncnc(Nc4ccc(OCc5cccc(F)c5)c(Cl)c4)c3c2)o1 [Lapatinib] (partner 2 µM)
How it was run: as §1

[3] = compound: COc1cc2ncn(-c3cc(OCc4ccccc4C(F)(F)F)c(C(N)=O)s3)c2cc1OC + C[C@]1(O)C[C@@H](c2nc(-c3ccc4ccc(-c5ccccc5)nc4c3)c3c(N)nccn32)C1 [Linsitinib] (partner 1 µM)
How it was run: as §1

[4] = compound: COc1cc2ncn(-c3cc(OCc4ccccc4C(F)(F)F)c(C(N)=O)s3)c2cc1OC + Cc1nc(NC(=O)N2CCC[C@H]2C(N)=O)sc1-c1ccnc(C(C)(C)C(F)(F)F)c1 [Alpelisib] (partner 2 µM)
How it was run: as §1

Cell Line	relative viability ([1]; first compound 0.05 µM)	relative viability ([1]; first compound 0.1581 µM)	relative viability ([1]; first compound 0.5 µM)	relative viability ([1]; first compound 1.581 µM)	relative viability ([1]; first compound 5 µM)	relative viability ([2]; first compound 0.05 µM)	relative viability ([2]; first compound 0.1581 µM)	relative viability ([2]; first compound 0.5 µM)	relative viability ([2]; first compound 1.581 µM)	relative viability ([2]; first compound 5 µM)	relative viability ([3]; first compound 0.05 µM)	relative viability ([3]; first compound 0.1581 µM)	relative viability ([3]; first compound 0.5 µM)	relative viability ([3]; first compound 1.581 µM)	relative viability ([3]; first compound 5 µM)	relative viability ([4]; first compound 0.05 µM)	relative viability ([4]; first compound 0.1581 µM)	relative viability ([4]; first compound 0.5 µM)	relative viability ([4]; first compound 1.581 µM)	relative viability ([4]; first compound 5 µM)
HCC-78	0.444	0.414	0.343	0.288	0.244	0.75	0.429	0.542	0.566	0.804	0.537	0.597	0.368	0.315	0.394	0.371	0.402	0.289	0.206	0.27
HCC-366	1.1	0.814	0.182	0.0338	0.0229	1.11	1.02	0.359	0.0141	0.0131	0.837	0.635	0.114	0.0118	0.0055	0.656	0.246	0.123	0.0134	0.0086
HCC-827	0.794	0.9	0.564	0.228	0.14	0.165	0.23	0.207	0.13	0.206	0.968	0.924	0.798	0.401	0.27	0.887	1.03	0.667	0.286	0.226
HOP-62	0.846	0.888	0.537	0.226	0.144	1.01	1.08	0.829	0.233	0.121	0.95	0.966	0.547	0.116	0.0914	1.02	0.837	0.752	0.199	0.116
IA-LM	–	–	–	–	–	0.617	0.49	0.0998	0.083	0.0955	0.58	0.606	0.172	0.0675	0.0619	0.701	0.493	0.107	0.0655	0.0465
LC-2-ad	0.813	0.754	0.393	0.289	0.254	0.811	0.592	0.511	0.119	0.0933	0.722	0.685	0.119	0.106	0.0972	0.791	0.784	0.135	0.113	0.1
LCLC-97TM1	0.529	0.538	0.301	0.195	0.175	0.802	0.893	0.343	0.175	0.161	0.203	0.182	0.122	0.141	0.115	0.244	0.238	0.144	0.139	0.127
LCLC-103H	0.495	0.538	0.405	0.249	0.12	–	–	–	–	–	1.21	1.09	0.841	0.53	0.344	0.966	1.04	0.997	0.389	0.248
LK-2	0.197	0.221	0.17	0.173	0.138	1.01	0.841	0.437	0.217	0.222	0.591	0.413	0.284	0.182	0.165	1.13	0.957	0.575	0.298	0.263
LOU-NH91	0.677	0.772	0.656	0.525	0.682	0.768	0.793	0.676	0.444	0.499	0.94	1.05	0.824	0.526	0.595	0.705	0.843	0.626	0.447	0.488
LU99A	0.304	0.32	0.231	0.176	0.178	1	0.948	0.577	0.226	0.183	0.502	0.522	0.224	0.212	0.161	0.488	0.495	0.36	0.189	0.167
LXF-289	0.815	0.755	0.214	0.0606	0.0476	0.912	0.709	0.647	0.147	0.0707	0.884	0.762	0.158	0.0992	0.0585	0.994	0.801	0.138	0.0881	0.0604
NCI-H441	0.553	0.495	0.2	0.245	0.237	–	–	–	–	–	0.395	0.315	0.205	0.152	0.149	0.771	0.506	0.161	0.177	0.156
NCI-H522	0.692	0.757	0.621	0.444	0.415	–	–	–	–	–	–	–	–	–	–	–	–	–	–	–
NCI-H1299	–	–	–	–	–	0.984	0.92	0.599	0.314	0.312	0.984	1.12	0.636	0.245	0.253	1.04	0.979	0.788	0.326	0.654
NCI-H1648	0.255	0.219	0.244	0.238	0.198	–	–	–	–	–	–	–	–	–	–	–	–	–	–	–
NCI-H1650	0.503	0.654	0.208	0.134	0.149	0.789	0.853	0.293	0.196	0.186	–	–	–	–	–	–	–	–	–	–
NCI-H1703	–	–	–	–	–	1.28	1.44	0.564	0.17	0.235	0.721	0.992	0.205	0.143	0.078	0.3	0.368	0.271	0.142	0.12
NCI-H2170	0.703	0.667	0.365	0.173	0.183	0.262	0.241	0.244	0.221	0.2	–	–	–	–	–	0.789	0.799	0.41	0.176	0.18
NCI-H2342	0.614	0.579	0.56	0.416	0.375	–	–	–	–	–	–	–	–	–	–	–	–	–	–	–
SW 900	0.59	0.618	0.364	0.173	0.093	–	–	–	–	–	–	–	–	–	–	–	–	–	–	–
